# Several values for one entry are separate records, joined by “and”; a condition that tells them apart may be missing. Identical values can stand only once. Entries after “also recorded” stand apart in the source; their conditions may differ. Like-named read-outs stand apart in the source and are kept apart here.
# Legend:
# [1] = system: T1, YedQ; test: In vitro DGC activity assay of YedQ (membrane fractions, HPLC of c-di-GMP); format: biochemical, S. Typhimurium; conditions: for Effect on DGC activity of YedQ in c-di-GMP synthesis (in words): in vitro, membrane fractions
# T1 construct: Preparation of membrane fractions containing full-length YeaJ and YedQ; made in house; host or cells: ΔluxS mutant of E. coli BL21(DE3), membrane fractions
# [2] = system: S. Typhimurium; test: Cellular c-di-GMP quantification by LC-MS/MS; format: cell-based; conditions: 1 μM; for c-di-GMP (fmol/107 cells): strain WT(Vector), Fig. 4e; for Change of intracellular c-di-GMP levels (in words): wild-type strain; for Induction of intracellular c-di-GMP levels (in words): ΔyedQ mutant
# Experimental: For stimulation with AI-2, the DPD/AI-2 solution was added to the shaking culture at OD600 of 1.3, followed by another 30 min of incubation at 37 °C. For induction by porcine bile salts and individual bile components (Sigma-Aldrich), substances were added to the static culture at OD600 of 1.1, followed by another 30 min of incubation at 37 °C. About 15 ml of culture was centrifuged and the cells were washed twice with phosphate-buffered saline (PBS, pH 7.0). The cell pellets were resuspended in 500 μl of extraction solution (acetonitrile/methanol/water, 40:40:20, v/v/v) and cooled on ice for 15 min. The samples were boiled for 10 min at 95 °C and then cooled again on ice for 15 min. After centrifugation at 20,000×g and 4 °C for 10 min, supernatants were transferred to new tubes on ice. The remaining pellets were used for two more extraction steps with 500 μl of the extraction solution without heating. Pooled supernatants for each sample were lyophilized, and pellets were resolubilized in 200 μl of distilled water. C-di-GMP concentrations were then measured by LC-MS/MS[63] (AB SCIEX QTRAP 6500+ LC-MS/MS System). Intracellular levels of c-di-GMP were normalized to the number of bacterial cells for each sample.
# [3] = system: S. Typhimurium; test: Biofilm formation (crystal violet staining); format: cell-based; conditions: for Biofilm formation (in words): strain SL1344, individual components of bile salts; for OD590: 1 μM, Fig. 4c
# Experimental: Biofilm formation was measured by crystal violet staining. In brief, overnight cultures of S. Typhimurium strains were diluted with fresh LB medium to an OD600 of 0.05, and 200 μl aliquots of the diluted cells were inoculated into each well of a sterile flat-bottomed 96-well polystyrene microtiter plate. After incubation at 37 °C for 24 h without shaking, culture supernatants were removed, and the wells were washed twice with sterilized water. Cells adhering to the wells were then stained with 0.1% (w/v) crystal violet for 15 min, followed by two washes using distilled water to remove unbound dye. […] For swimming motility assay, overnight cultures of S. Typhimurium strains were diluted to an OD600 of 0.5, and 2 μl aliquots of the diluted cells were spotted onto 0.3% tryptone agar (1% tryptone, 0.5% NaCl, and 0.3% Bacto agar [Difco]). Motility halos were measured after the plates were incubated at 37 °C for 12 h.
# [4] = biological target: YedQ-LBD L289A (Salmonella typhimurium, UniProt Q8ZNT5, L289A); test: biochemical
# YedQ-LBD L289A, sequence (Q8ZNT5 43-357 L289A): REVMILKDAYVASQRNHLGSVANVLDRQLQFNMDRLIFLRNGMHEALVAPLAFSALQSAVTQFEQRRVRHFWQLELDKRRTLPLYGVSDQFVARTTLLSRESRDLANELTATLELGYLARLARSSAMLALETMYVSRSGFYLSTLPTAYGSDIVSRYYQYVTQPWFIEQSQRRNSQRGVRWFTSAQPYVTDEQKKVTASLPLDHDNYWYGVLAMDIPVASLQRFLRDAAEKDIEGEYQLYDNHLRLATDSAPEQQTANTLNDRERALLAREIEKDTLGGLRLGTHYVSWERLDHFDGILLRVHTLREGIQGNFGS
# Experimental: (§1) ITC measurements were carried out at 20 °C with a Nano ITC Standard Volume isothermal calorimeter (TA Instruments, New Castle, DE) controlled by the ITCRun software. The N-terminal His6 tags of all purified proteins were removed before ITC analysis. For titrations with DPD/AI-2 (Omm Scientific), the tag-free proteins were dialyzed against a Tris buffer (25 mM Tris-HCl, 150 mM NaCl, pH 7.5) and diluted to 70 μM, while DPD/AI-2 was diluted with the same buffer to 700 μM. […] After being degassed, 1 ml of the protein and 250 μl of the ligand solution were added to the sample cell and the syringe, respectively. There were 25 injections per experiment and the stirring speed was 200 rpm. In control experiments, the ligand solution was titrated into the buffer in the sample cell to obtain the heat of dilution. Microcalorimetric data were corrected by subtracting the heats of dilution and fit to the independent binding site model using the NanoAnalyze software.
# (§2) The binding affinitywas evaluated using ITC analysis. ITC data and plots of injected heat for injections
# (§3) binding curves were corrected for the dilution effects in the final analysis.
# (§4) The Kd and binding stoichiometry
# (§5) (n)values were presented as mean ± s.d. of three independent experiments. Source data are provided
# [5] = biological target: YedQ-LBD D233A (Salmonella typhimurium, UniProt Q8ZNT5, D233A); test: biochemical
# YedQ-LBD D233A, sequence (Q8ZNT5 43-357 D233A): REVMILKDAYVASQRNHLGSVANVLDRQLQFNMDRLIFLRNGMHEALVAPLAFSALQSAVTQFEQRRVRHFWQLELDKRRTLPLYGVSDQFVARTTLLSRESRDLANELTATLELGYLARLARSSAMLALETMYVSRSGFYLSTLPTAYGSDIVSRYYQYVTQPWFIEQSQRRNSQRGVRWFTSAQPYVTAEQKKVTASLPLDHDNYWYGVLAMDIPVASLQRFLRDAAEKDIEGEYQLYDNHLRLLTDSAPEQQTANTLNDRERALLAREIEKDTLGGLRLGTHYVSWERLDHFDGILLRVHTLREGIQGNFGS
# Experimental: as §1, §2, §3, §4, §5
# [6] = biological target: YedQ-LBD Q264A (Salmonella typhimurium, UniProt Q8ZNT5, Q264A); test: biochemical
# YedQ-LBD Q264A, sequence (Q8ZNT5 43-357 Q264A): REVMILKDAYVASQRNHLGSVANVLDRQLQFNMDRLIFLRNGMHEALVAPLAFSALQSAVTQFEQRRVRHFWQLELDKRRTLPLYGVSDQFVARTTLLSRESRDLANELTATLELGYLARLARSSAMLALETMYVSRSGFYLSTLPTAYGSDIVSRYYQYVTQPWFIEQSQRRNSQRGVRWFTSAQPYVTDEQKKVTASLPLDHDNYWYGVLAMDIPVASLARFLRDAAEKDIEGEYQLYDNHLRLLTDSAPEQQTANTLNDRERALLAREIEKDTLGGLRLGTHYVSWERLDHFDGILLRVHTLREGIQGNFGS
# Experimental: as §1, §2, §3, §4, §5
# [7] = biological target: YedQ-LBD L288A (Salmonella typhimurium, UniProt Q8ZNT5, L288A); test: biochemical
# YedQ-LBD L288A, sequence (Q8ZNT5 43-357 L288A): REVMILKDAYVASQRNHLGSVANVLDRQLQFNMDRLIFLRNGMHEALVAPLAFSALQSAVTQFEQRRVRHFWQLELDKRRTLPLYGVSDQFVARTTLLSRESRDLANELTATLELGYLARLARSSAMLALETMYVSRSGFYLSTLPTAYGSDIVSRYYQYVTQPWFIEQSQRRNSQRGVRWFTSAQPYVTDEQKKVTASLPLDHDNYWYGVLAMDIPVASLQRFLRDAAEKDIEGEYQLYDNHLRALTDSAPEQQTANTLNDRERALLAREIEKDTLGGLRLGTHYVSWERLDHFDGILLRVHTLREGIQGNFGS
# Experimental: as §1, §2, §3, §4, §5
# [8] = biological target: YedQ-LBD K236A (Salmonella typhimurium, UniProt Q8ZNT5, K236A); test: biochemical
# YedQ-LBD K236A, sequence (Q8ZNT5 43-357 K236A): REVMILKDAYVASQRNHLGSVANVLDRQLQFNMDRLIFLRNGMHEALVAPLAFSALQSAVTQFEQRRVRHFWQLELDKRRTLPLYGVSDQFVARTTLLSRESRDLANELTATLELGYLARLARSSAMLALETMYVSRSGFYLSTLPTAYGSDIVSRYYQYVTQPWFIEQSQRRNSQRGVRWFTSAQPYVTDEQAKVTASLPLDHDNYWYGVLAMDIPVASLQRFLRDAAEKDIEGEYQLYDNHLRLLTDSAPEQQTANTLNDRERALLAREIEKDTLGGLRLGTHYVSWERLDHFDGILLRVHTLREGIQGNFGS
# Experimental: as §1, §2, §3, §4, §5
# [9] = biological target: T2, WP_010904779-LBD (Escherichia coli O157:H7, UniProt Q8XB92); test: biochemical; format: binding, EHEC O157:H7; conditions: for Binding affinity (in words) / Kd: ITC; for Binding affinity (in words): LBD of the YedQ homolog from EHEC O157:H7
# T2 construct: His6 (N, cleaved yes); made in house; host or cells: E. coli BL21(DE3) or its luxS deletion derivative
# T2 sequence (Q8XB92 43-357 limits assumed): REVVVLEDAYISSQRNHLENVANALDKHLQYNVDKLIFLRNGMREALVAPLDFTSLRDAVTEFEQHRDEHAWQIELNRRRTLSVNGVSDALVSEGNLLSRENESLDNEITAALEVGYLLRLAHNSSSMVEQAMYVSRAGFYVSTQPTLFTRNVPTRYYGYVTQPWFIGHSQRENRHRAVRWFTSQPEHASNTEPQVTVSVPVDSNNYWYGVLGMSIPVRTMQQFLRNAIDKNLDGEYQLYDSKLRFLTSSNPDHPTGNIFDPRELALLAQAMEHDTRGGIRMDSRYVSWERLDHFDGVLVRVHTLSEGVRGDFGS
# Experimental: as §1
# The binding affinity was evaluated by ITC analysis. ITC data and plots of injected heat for automatic
# WP_010904779-LBD are shown in the upper and lower plots, respectively. The binding curves were
# corrected for the dilution effects in the finalanalysis.
# Kd and binding stoichiometry (n) are presented as mean ± s.d. of three
# [10] = biological target: T3, YedQ-LBD (Salmonella typhimurium, UniProt Q8ZNT5); test: biochemical; format: binding, S. Typhimurium
# T3 construct: the periplasmic LBD (residues 43–357) of YedQ is structurally not well defined; His6 (N, cleaved yes); made in house; host or cells: E. coli BL21(DE3) or its luxS deletion derivative, pET-28a
# T3 sequence (Q8ZNT5 43-357): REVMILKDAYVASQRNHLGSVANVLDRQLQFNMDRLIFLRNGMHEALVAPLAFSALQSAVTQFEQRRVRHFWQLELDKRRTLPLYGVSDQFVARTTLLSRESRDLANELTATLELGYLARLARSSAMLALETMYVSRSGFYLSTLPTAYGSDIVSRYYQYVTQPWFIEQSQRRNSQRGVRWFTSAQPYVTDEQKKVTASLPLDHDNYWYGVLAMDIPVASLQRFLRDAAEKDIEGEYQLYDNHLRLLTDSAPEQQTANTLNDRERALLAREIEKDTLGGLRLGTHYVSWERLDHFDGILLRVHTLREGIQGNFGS
# Experimental: as §1
# [11] = biological target: T4, SicA (Salmonella typhimurium, UniProt P69066); test: ITC: nucleotide (c-di-GMP, c-di-AMP, cGMP) binding to SicA; design: species or system S. Typhimurium; conditions: same experimental conditions as c-di-GMP
# T4 construct: His6 (N, cleaved yes); made in house; host or cells: E. coli BL21(DE3), pET-28a (pET28a-sicA)
# T4 sequence (P69066 whole entry): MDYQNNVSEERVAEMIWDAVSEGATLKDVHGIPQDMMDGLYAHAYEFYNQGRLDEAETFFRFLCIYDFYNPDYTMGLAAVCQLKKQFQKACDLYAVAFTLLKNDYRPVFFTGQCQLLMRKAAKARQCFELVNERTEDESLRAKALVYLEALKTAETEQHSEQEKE
Compound,"Concentration of c-di-GMP ([1]; 100 μM, 30 min)","Concentration of c-di-GMP ([1]; 100 μM, 60 min)","Concentration of c-di-GMP ([1]; 200 μM, 30 min)","Concentration of c-di-GMP ([1]; 200 μM, 60 min)",Effect on DGC activity of YedQ in c-di-GMP synthesis (in words) [1],c-di-GMP (fmol/107 cells) [2],Change of intracellular c-di-GMP levels (in words) [2],Induction of intracellular c-di-GMP levels (in words) [2],Biofilm formation (in words) [3],Binding affinity (in words) [9],Binding to SicA (in words) [11],OD590 [3],other results
C[C@H](CCC(=O)NCCS(=O)(=O)O)[C@H]1CC[C@H]2[C@@H]3[C@H](O)C[C@@H]4C[C@H](O)CC[C@]4(C)[C@H]3C[C@H](O)[C@]12C [taurocholate],22.83 µM and 22.66 µM and 23.00 µM,34.84 µM and 35.29 µM and 36.56 µM,39.61 µM and 38.40 µM and 39.33 µM,45.78 µM and 46.73 µM and 45.87 µM,induce the DGC activity,57.59 fmol/107 cells and 62.54 fmol/107 cells and 56.52 fmol/107 cells,significant increase,completely abolished,significantly stimulated biofilm formation,high binding; also recorded: high affinity,,,"n, Taurocholate binding to YedQ-LBDL289A ([4]; ITC binding stoichiometry n, individual replicates, Supplementary Figure 11e): 1.18 and 1.14 and 1.16; Kd ([4]; Kd (μM), binding to YedQ-LBD L289A): 7.7 µM and 6.8 µM and 7.2 µM; Kd ([5]; Binding affinity Kd (μM), ITC, YedQ-LBD D233A, mean ± s.d.): 18 ± 1 µM; n, Taurocholate binding to YedQ-LBDD233A ([5]; ITC binding stoichiometry n, individual replicates, Supplementary Figure 11a): 1.11 and 1.16 and 1.13; Kd ([5]; Kd (μM), binding to YedQ-LBD D233A): 18 µM and 16 µM; Kd ([5]; Kd, Taurocholate binding to YedQ-LBDD233A, ITC, individual replicates, Supplementary Figure 11a): 18 µM; n, Taurocholate binding to YedQ-LBDQ264A ([6]; ITC binding stoichiometry n, individual replicates, Supplementary Figure 11c): 1.07 and 1.18 and 1.00; Kd ([6]; Kd (μM), binding to YedQ-LBD Q264A): 14 µM and 12 µM and 15 µM; n, Taurocholate binding to YedQ-LBDL288A ([7]; ITC binding stoichiometry n, individual replicates, Supplementary Figure 11d): 1.10 and 1.02 and 1.07; Kd ([7]; Kd (μM), binding to YedQ-LBD L288A): 18 µM and 21 µM and 24 µM; Kd ([8]; Binding affinity Kd (μM), ITC, YedQ-LBD K236A, mean ± s.d.): 27 ± 2 µM; n, Taurocholate binding to YedQ-LBDK236A ([8]; ITC binding stoichiometry n, individual replicates, Supplementary Figure 11b): 1.04 and 1.09 and 1.01; Kd ([8]; Kd (μM), binding to YedQ-LBD K236A): 24 µM and 26 µM and 30 µM; n, Taurocholate binding to WP_010904779-LBD ([9]; ITC binding stoichiometry n, individual replicates, Supplementary Figure 24a): 1.06 and 1.08 and 1.12; Kd ([9]; Taurocholate binding to WP_010904779-LBD, individual replicates, Supplementary Figure 24a): 0.19 µM and 0.22 µM and 0.23 µM; Kd ([10]; Kd (μM), binding to YedQ-LBD (WT)): 0.2 µM and 0.13 µM and 0.16 µM; Kd ([10]; Kd, ITC, YedQ-LBD WT, mean ± s.d. of three independent experiments): 0.17 ± 0.03 µM"
Nc1nc2c(ncn2[C@@H]2O[C@@H]3COP(=O)(O)O[C@H]3[C@H]2O)c(=O)[nH]1 [cGMP],,,,,,,,,,,no binding,,
C[C@H](CCC(=O)O)[C@H]1CC[C@H]2[C@@H]3[C@H](O)C[C@@H]4C[C@H](O)CC[C@]4(C)[C@H]3C[C@H](O)[C@]12C [Cholate],,,,,,,,,,,,2.29 and 2.20 and 2.14,
Nc1ncnc2c1ncn2[C@@H]1O[C@@H]2COP(=O)(O)O[C@H]3[C@@H](O)[C@H](n4cnc5c(N)ncnc54)O[C@@H]3COP(=O)(O)O[C@H]2[C@H]1O [c-di-AMP],,,,,,,,,,,no binding,,
C[C@H](CCC(=O)NCC(=O)O)[C@H]1CC[C@H]2[C@@H]3[C@H](O)C[C@@H]4C[C@H](O)CC[C@]4(C)[C@H]3C[C@H](O)[C@]12C [Glycocholate],,,,,,,,,,,,2.14,
C[C@H](CCC(=O)NCCS(=O)(=O)O)[C@H]1CC[C@H]2[C@@H]3CC[C@@H]4C[C@H](O)CC[C@]4(C)[C@H]3C[C@H](O)[C@]12C [taurodeoxycholate],22.89 µM and 24.25 µM and 23.52 µM,34.75 µM and 35.42 µM and 35.31 µM,37.84 µM and 36.56 µM and 37.20 µM,46.63 µM and 47.86 µM and 45.57 µM,induce the DGC activity,78.56 fmol/107 cells and 82.79 fmol/107 cells and 79.80 fmol/107 cells,significant increase,completely abolished,significantly stimulated biofilm formation,high binding; also recorded: high affinity,,,"n, Taurodeoxycholate binding to WP_010904779-LBD ([9]; ITC binding stoichiometry n, individual replicates, Supplementary Figure 24b): 1.13 and 1.09 and 1.12; Kd ([9]; Taurodeoxycholate binding to WP_010904779-LBD, individual replicates, Supplementary Figure 24b): 0.13 µM and 0.17 µM and 0.19 µM; Kd ([10]; ITC, YedQ-LBD WT, mean ± s.d. of three independent experiments, read-out: Kd): 0.14 ± 0.02 µM; Kd ([10]; binding to YedQ-LBD (WT), read-out: Kd): 0.15 µM and 0.17 µM and 0.11 µM"
